According to patent publication US9273003B2, “Methods of treating lymphoma and rheumatoid arthritis with cyclopentyl (2S)-cyclohexyl[({6-[3-(hydroxyamino)-3-oxopropyl]pyridin-3-yl}methyl)amino]acetate” (GlaxoSmithKline Intellectual Property Development Limited, priority 2006, dated 2016):

test system: intracellular carboxylesterases (U937 cell extract); assay: Broken cell carboxylesterase assay, U937 cell extract; type: in vitro ADME; conditions: ester 2.5 μM, 37° C.
Experimental: Any given compound of the present invention wherein R1 is an ester group may be tested to determine whether it meets the requirement that it be hydrolysed by intracellular esterases, by testing in the following assay.
U937 or Hut78 tumour cells (˜10^9) were washed in 4 volumes of Dulbeccos PBS (˜1 liter) and pelleted at 525 g for 10 min at 4° C. This was repeated twice and the final cell pellet was resuspended in 35 mL of cold homogenising buffer (Trizma 10 mM, NaCl 130 mM, CaCl2 0.5 mM pH 7.0 at 25° C.). Homogenates were prepared by nitrogen cavitation (700 psi for 50 min at 4° C.). The homogenate was kept on ice and supplemented with a cocktail of inhibitors at final concentrations of: • Leupeptin 1 μM • Aprotinin 0.1 μM • E64 8 μM • Pepstatin 1.5 μM • Bestatin 162 μM • Chymostatin 33 μM After clarification of the cell homogenate by centrifugation at 525 g for 10 min, the resulting supernatant was used as a source of esterase activity and was stored at −80° C. until required. Measurement of Ester Cleavage
Hydrolysis of esters to the corresponding carboxylic acids can be measured using the cell extract, prepared as above. To this effect cell extract (˜30 μg/total assay volume of 0.5 ml) was incubated at 37° C. in a Tris-HCl 25 mM, 125 mM NaCl buffer, pH 7.5 at 25° C. At zero time the ester (substrate) was then added at a final concentration of 2.5 μM and the samples were incubated at 37° C. for the appropriate time (usually 0 or 80 min). Reactions were stopped by the addition of 3× volumes of acetonitrile. For zero time samples the acetonitrile was added prior to the ester compound. After centrifugation at 12000 g for 5 min, samples were analysed for the ester and its corresponding carboxylic acid at room temperature by LCMS (Sciex API 3000, HP1100 binary pump, CTC PAL). Chromatography was based on an AceCN (75×2.1 mm) column and a mobile phase of 5-95% acetonitrile in water/0.1% formic acid.
Rates of hydrolysis are expressed in pg/mL/min.

Row | Hydrolysis Rate Range U937 Cells [pg/mL/min] | SMILES
1 | 1000 to 50000 | Cc1ccc(NCc2cnc3nc(N)nc(N)c3c2C)cc1 [drawing 94]
2 | >50000 | Cc1ccc(NCc2cnc3nc(N)nc(N)c3c2C)cc1 [drawing 90]
3 | 100 to 1000 | COc1cc2c(Oc3ccc(NC(=O)c4ccccc4)cc3)ccnc2cc1C
